SMILES strings stand for the structures. Square brackets hold non-standard residues; d marks the D form. Peptide text beside a SMILES is read from it. * marks the point of attachment. Orn = NCCC[C@H](N)C(=O)O; Hexanoyl = CCCCCC(=O)*; Aib = CC(C)(N)C(=O)O Bounds are passed on as bounds.

The text below walks through data of patent US20080194482A1, “Selective Apac2 Receptor Peptide Agonists” (priority 2005, published 2008).

The nature of data set [1]: Rat serum stability (activity remaining, CHO-VPAC2 DiscoveRx read-out). The class given is in vitro ADME. Put shortly: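 Peptides preincubated overnight in rat serum at 37 °C without aprotinin versus 4 °C with aprotinin, then tested as 11-point 5× dilutions in duplicate on CHO-VPAC2 cells, 30 min at RT. cAMP measured by DiscoveRx kit against standards; EC50 derived for each aliquot.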

In the next data set the target is T1, human PAC1 (Homo sapiens, UniProt P41586).
T1 construct: expressed in transfected cells
T1 sequence (P41586 21-468): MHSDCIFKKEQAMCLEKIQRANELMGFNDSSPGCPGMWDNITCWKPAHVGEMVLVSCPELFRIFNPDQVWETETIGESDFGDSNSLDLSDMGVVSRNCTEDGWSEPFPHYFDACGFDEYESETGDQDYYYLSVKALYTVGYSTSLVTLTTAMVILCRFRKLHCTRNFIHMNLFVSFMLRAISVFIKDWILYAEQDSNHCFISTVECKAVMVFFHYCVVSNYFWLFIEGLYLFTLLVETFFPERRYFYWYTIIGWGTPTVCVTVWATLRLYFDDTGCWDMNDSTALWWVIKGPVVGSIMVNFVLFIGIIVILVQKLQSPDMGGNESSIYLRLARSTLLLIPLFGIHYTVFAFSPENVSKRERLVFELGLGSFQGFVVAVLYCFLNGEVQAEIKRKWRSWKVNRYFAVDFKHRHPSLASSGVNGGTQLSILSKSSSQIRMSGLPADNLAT
Briefly: Filter binding assay, 125I-labeled PACAP-27 tracer, PAC1 membranes. The note with it: read-out: Human PAC1 Receptor Binding (IC50; nM).

The target of another data set is T2, rat VPAC2 receptor (Rattus norvegicus, UniProt P35000).
T2 construct: expressed in transfected cells; host or cells: CHO-PO (transient, Lipofectamine)
T2 sequence (P35000 23-437): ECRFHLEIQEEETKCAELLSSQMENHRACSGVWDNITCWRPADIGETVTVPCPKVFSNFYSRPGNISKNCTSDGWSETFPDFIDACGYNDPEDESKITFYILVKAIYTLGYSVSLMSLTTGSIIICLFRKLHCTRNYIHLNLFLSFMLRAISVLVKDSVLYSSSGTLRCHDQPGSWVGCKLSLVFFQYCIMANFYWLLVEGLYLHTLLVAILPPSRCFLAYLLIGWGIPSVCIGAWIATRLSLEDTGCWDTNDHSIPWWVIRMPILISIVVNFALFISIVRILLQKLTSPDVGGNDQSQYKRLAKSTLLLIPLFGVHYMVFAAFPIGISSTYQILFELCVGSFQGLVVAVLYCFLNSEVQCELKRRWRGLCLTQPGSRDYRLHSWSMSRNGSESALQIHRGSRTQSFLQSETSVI
Description: DiscoveRx cAMP assay, in vitro potency at rat VPAC2 receptor. The class given is cell-based. Particulars: CHO-PO cells transiently transfected with rat VPAC2; cAMP generation; mean of two independent runs. The method, then:
DiscoveRx: CHO-PO cells are transiently transfected with rat VPAC1 or VPAC2 receptor DNA using commercially available transfection reagents (Lipofectamine from Invitrogen). The cells are seeded at a density of 10,000/well in a 96-well plate and are allowed to grow for 3 days in […] culture medium. At day 3, the assay is performed.
On the day of the experiment, the medium is removed. Also, the cells are washed twice. The cells are incubated in assay buffer plus IBMX for 15 minutes at room temperature. Afterwards, the stimuli are added and are dissolved in assay buffer. The stimuli are present for 30 minutes. Then, the assay buffer is gently removed. The cell lysis reagent of the DiscoveRx cAMP kit is added. Thereafter, the standard protocol for developing the cAMP signal as described by the manufacturer is used (DiscoveRx Inc., USA). EC50 values for cAMP generation are calculated from the raw signal or are based on absolute cAMP levels as determined by a standard curve performed on each plate.
Results for each agonist are the mean of two independent runs. Rat VPAC1 and VPAC2 results are only generated using the DiscoveRx assay.
Background: cAMP levels reflect the balance of adenylyl cyclase and phosphodiesterase activity.

Data set [2] addresses T3, human VPAC2 (Homo sapiens, UniProt P41587).
T3 construct: expressed in transfected cells
T3 sequence (P41587 24-438): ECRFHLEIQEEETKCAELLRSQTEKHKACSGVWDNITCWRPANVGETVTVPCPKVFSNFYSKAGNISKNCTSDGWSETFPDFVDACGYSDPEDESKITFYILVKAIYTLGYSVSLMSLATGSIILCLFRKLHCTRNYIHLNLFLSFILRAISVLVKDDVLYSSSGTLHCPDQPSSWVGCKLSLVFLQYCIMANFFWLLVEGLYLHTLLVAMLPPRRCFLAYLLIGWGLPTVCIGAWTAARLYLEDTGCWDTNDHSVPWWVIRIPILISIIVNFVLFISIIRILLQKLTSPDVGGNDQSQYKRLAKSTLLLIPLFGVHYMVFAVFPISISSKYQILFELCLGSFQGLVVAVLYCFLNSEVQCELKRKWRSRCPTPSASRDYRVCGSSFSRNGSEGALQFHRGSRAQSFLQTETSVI
Briefly: Alpha screen cAMP assay, in vitro potency at human VPAC2 receptor. It is filed as cell-based. The note with it: cAMP generation; single result from two analyses in a single run, some values average of more than one experiment.

The target of a further data set is T4, human VPAC1 (Homo sapiens, UniProt P32241).
T4 construct: expressed in transfected cells
T4 sequence (P32241 31-457): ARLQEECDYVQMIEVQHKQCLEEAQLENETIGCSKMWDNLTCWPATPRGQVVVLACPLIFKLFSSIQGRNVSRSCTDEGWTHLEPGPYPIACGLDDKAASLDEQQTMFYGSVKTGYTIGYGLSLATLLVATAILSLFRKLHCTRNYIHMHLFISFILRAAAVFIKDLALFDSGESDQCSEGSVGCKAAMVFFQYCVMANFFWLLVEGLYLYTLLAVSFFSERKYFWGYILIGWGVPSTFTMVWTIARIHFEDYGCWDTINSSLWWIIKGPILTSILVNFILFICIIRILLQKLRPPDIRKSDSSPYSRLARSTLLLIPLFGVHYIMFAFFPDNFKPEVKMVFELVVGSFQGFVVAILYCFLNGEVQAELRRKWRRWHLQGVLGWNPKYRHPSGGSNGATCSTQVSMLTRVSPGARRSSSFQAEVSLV
Briefly: Filter binding assay, 125I-labeled VIP tracer, VPAC1 membranes. The note with it: read-out: Human VPAC1 Receptor Binding (IC50; nM).

In data set [3] the target is T3, human VPAC2. Description: Filter binding assay, 125I-labeled VIP tracer, VPAC2 membranes. The note with it: read-out: Human VPAC2 Receptor Binding (IC50; nM).

`CCCCCC(=O)N[C@@H](Cc1c[nH]cn1)C(=O)N[C@@H](CO)C(=O)N[C@@H](CC(=O)O)C(=O)N[C@@H](C)C(=O)N[C@H](C(=O)N[C@@H](Cc1ccccc1)C(=O)N[C@H](C(=O)N[C@@H](CC(=O)O)C(=O)N[C@@H](CCC(N)=O)C(=O)N[C@@H](Cc1ccc(O)cc1)C(=O)N[C@H](C(=O)N[C@@H](CCCN)C(=O)N[C@@H](CC(C)C)C(=O)N[C@@H](CCCNC(=N)N)C(=O)NC(C)(C)C(=O)N[C@@H](CCC(N)=O)C(=O)N[C@H](C(=O)N[C@@H](C)C(=O)N[C@@H](C)C(=O)NC(C)(C)C(=O)N[C@@H](CCCCN)C(=O)N[C@@H](Cc1ccc(O)cc1)C(=O)N[C@@H](CC(C)C)C(=O)N[C@@H](CCC(N)=O)C(=O)N[C@@H](CO)C(=O)N[C@H](C(=O)N[C@@H](CCCN)C(=O)N[C@@H](CCC(N)=O)C(=O)N[C@@H](CCCN)C(=O)NCC(=O)NCC(=O)N1CCC[C@H]1C(=O)N[C@@H](CO)C(=O)N[C@@H](CO)C(=O)NCC(=O)N[C@@H](C)C(=O)N1CCC[C@H]1C(=O)N1CCC[C@H]1C(=O)N1CCC[C@H]1C(=O)N[C@@H](CO)C(=O)O)[C@@H](C)CC)C(C)C)[C@@H](C)O)[C@@H](C)O)C(C)C` [Agonist P363] (Hexanoyl-HSDAVFTDQYT[Orn]LR[Aib]QVAA[Aib]KYLQSI[Orn]Q[Orn]GGPSSGAPPPS-OH; C-terminus assumed): the “Rat Serum Stability (estimated purity in % after overnight incub.)” value in data set [1] is listed as 81.66%. Besides, the IC50 (in general, the concentration that inhibits the measured activity by half) at human PAC1 is greater than 25000 nM; at human VPAC1 it was greater than 3000 nM. Besides, the EC50 (commonly the midpoint of the concentration-response curve) at rat VPAC2 receptor came to 0.09 nM; at human VPAC2 [2], 0.27 nM.

`CCCCCC(=O)N[C@@H](Cc1c[nH]cn1)C(=O)N[C@@H](CO)C(=O)N[C@@H](CC(=O)O)C(=O)N[C@@H](C)C(=O)N[C@H](C(=O)N[C@@H](Cc1ccccc1)C(=O)N[C@H](C(=O)N[C@@H](CC(=O)O)C(=O)N[C@@H](CC(N)=O)C(=O)N[C@@H](Cc1ccc(O)cc1)C(=O)N[C@H](C(=O)N[C@@H](CC(C)C)C(=O)N[C@@H](CC(C)C)C(=O)N[C@@H](CCCNC(=N)N)C(=O)NC(C)(C)C(=O)N[C@@H](CCC(N)=O)C(=O)N[C@H](C(=O)N[C@@H](C)C(=O)N[C@@H](C)C(=O)NC(C)(C)C(=O)N[C@@H](CCCCN)C(=O)N[C@@H](Cc1ccc(O)cc1)C(=O)N[C@@H](CC(C)C)C(=O)N[C@@H](CCC(N)=O)C(=O)N[C@@H](CO)C(=O)N[C@H](C(=O)N[C@@H](CCCN)C(=O)N[C@@H](CC(N)=O)C(=O)N[C@@H](CCCN)C(=O)NCC(=O)NCC(=O)N1CCC[C@H]1C(=O)N[C@@H](CO)C(=O)N[C@@H](CO)C(=O)NCC(=O)N[C@@H](C)C(=O)N1CCC[C@H]1C(=O)N1CCC[C@H]1C(=O)N1CCC[C@H]1C(=O)N[C@@H](CO)C(=O)O)[C@@H](C)CC)C(C)C)[C@@H](C)O)[C@@H](C)O)C(C)C` [Agonist P367] (Hexanoyl-HSDAVFTDNYTLLR[Aib]QVAA[Aib]KYLQSI[Orn]N[Orn]GGPSSGAPPPS-OH; C-terminus assumed): the “Rat Serum Stability (estimated purity in % after overnight incub.)” value in data set [1] is recorded as 55.82%. Moreover, the IC50 on human PAC1 was greater than 25000 nM; on human VPAC2 [3], greater than 100 nM; on human VPAC1 it was greater than 3000 nM.

For `CCCCCC(=O)N[C@@H](Cc1c[nH]cn1)C(=O)N[C@@H](CO)C(=O)N[C@@H](CC(=O)O)C(=O)N[C@@H](C)C(=O)N[C@H](C(=O)N[C@@H](Cc1ccccc1)C(=O)N[C@H](C(=O)N[C@@H](CC(=O)O)C(=O)N[C@@H](CC(N)=O)C(=O)N[C@@H](Cc1ccc(O)cc1)C(=O)N[C@H](C(=O)N[C@@H](CCCN)C(=O)N[C@@H](CC(C)C)C(=O)N[C@@H](CCCNC(=N)N)C(=O)NC(C)(C)C(=O)N[C@@H](CCC(N)=O)C(=O)N[C@H](C(=O)N[C@@H](C)C(=O)N[C@@H](C)C(=O)NC(C)(C)C(=O)N[C@@H](CCCCN)C(=O)N[C@@H](Cc1ccc(O)cc1)C(=O)N[C@@H](CC(C)C)C(=O)N[C@@H](CO)C(=O)N[C@@H](CO)C(=O)N[C@H](C(=O)N[C@@H](CCCN)C(=O)N[C@@H](CC(N)=O)C(=O)N[C@@H](CCCN)C(=O)NCC(=O)NCC(=O)N1CCC[C@H]1C(=O)N[C@@H](CO)C(=O)N[C@@H](CO)C(=O)NCC(=O)N[C@@H](C)C(=O)N1CCC[C@H]1C(=O)N1CCC[C@H]1C(=O)N1CCC[C@H]1C(=O)N[C@@H](CO)C(=O)O)[C@@H](C)CC)C(C)C)[C@@H](C)O)[C@@H](C)O)C(C)C` [Agonist P383] (Hexanoyl-HSDAVFTDNYT[Orn]LR[Aib]QVAA[Aib]KYLSSI[Orn]N[Orn]GGPSSGAPPPS-OH; C-terminus assumed), in data set [1], the “Rat Serum Stability (estimated purity in % after overnight incub.)” value is 113.66%. The figures for the 50% inhibitory concentration (IC50) on human PAC1 and at human VPAC1 were greater than 25000 nM and greater than 3000 nM, respectively. The values for the concentration for a half-maximal effect (EC50) at rat VPAC2 receptor and at human VPAC2 [2] were 0.18 nM and 0.12 nM, respectively.

As for `CCCCCC(=O)N[C@@H](Cc1c[nH]cn1)C(=O)N[C@@H](CO)C(=O)N[C@@H](CC(=O)O)C(=O)N[C@@H](C)C(=O)N[C@H](C(=O)N[C@@H](Cc1ccccc1)C(=O)N[C@H](C(=O)N[C@@H](CC(=O)O)C(=O)N[C@@H](CC(N)=O)C(=O)N[C@@H](Cc1ccc(O)cc1)C(=O)N[C@H](C(=O)N[C@@H](CCCNC(=N)N)C(=O)N[C@@H](CC(C)C)C(=O)N[C@@H](CC(C)C)C(=O)N[C@@H](C)C(=O)N[C@@H](CCCCN)C(=O)N[C@@H](CC(C)C)C(=O)N[C@@H](C)C(=O)N[C@@H](CC(C)C)C(=O)N[C@@H](CCC(N)=O)C(=O)N[C@@H](CCCCN)C(=O)N[C@@H](Cc1ccc(O)cc1)C(=O)N[C@@H](CC(C)C)C(=O)N[C@@H](CCC(N)=O)C(=O)N[C@@H](CO)C(=O)N[C@H](C(=O)N[C@@H](CCCN)C(=O)N[C@@H](CC(N)=O)C(=O)N[C@@H](CCCN)C(=O)NCC(=O)NCC(=O)N1CCC[C@H]1C(=O)N[C@@H](CO)C(=O)N[C@@H](CO)C(=O)NCC(=O)N[C@@H](C)C(=O)N1CCC[C@H]1C(=O)N1CCC[C@H]1C(=O)N1CCC[C@H]1C(=O)N[C@@H](CO)C(=O)O)[C@@H](C)CC)[C@@H](C)O)[C@@H](C)O)C(C)C` [Agonist P370] (Hexanoyl-HSDAVFTDNYTRLLAKLALQKYLQSI[Orn]N[Orn]GGPSSGAPPPS-OH; C-terminus assumed), the “Rat Serum Stability (estimated purity in % after overnight incub.)” value in data set [1] is 41.82%. The IC50 is greater than 25000 nM on human PAC1 and greater than 3000 nM on human VPAC1. Moreover, the 50% effective concentration (EC50) came out at 0.05 nM on rat VPAC2 receptor and 0.23 nM at human VPAC2 [2].
